# Results from patent publication US12551482B2, “Aurora kinase inhibitors” (The Regents of the University of California, priority 2013, dated 2026).
# pEC50: −log10 of the molar value. Read-outs that look alike come from different tables or passages of the source.
# Assays:
# LB831-BLC = experiment: Cancer cell line profiling, Genomics of Drug Sensitivity Project; conditions: read-out: CD532 EC50 (uM)
# NCI-N87 = experiment: as above; conditions: Homo sapiens, NCI-N87, read-out: CD532 EC50 (uM)
# HSC-4 = experiment: as above; conditions: Homo sapiens, HSC-4, read-out: CD532 EC50 (uM)
# MYCN = MYCN protein by immunoblot in SHEP cells expressing MYCN; assay type: cell-based
# Experimental: Neuroblastoma tumor cell lines were obtained from the University of California San Francisco Cell Culture Facility (Kelly, SK-N-BE2, and SH-EP). SMS-KCN, SHEP MYCN^wt and MYCN^T58A/S62A cells were obtained. All cells were grown in RPMI with 10% FBS. Neuroblastoma cells were harvested and lysed with Cell Signaling Lysis buffer+1% SDS, sonicated and supernatants boiled in LDS sample buffer (Invitrogen). Western blots were performed as described previously (Chanthery et al., 2012), with primary antibodies to MYCN (ab24193, Abcam), Histone H3, P-Histone H3 (S10), Aurora A (Cell signaling), and GAPDH (Millipore). Western blot quantitation performed with ImageJ software.
# MYCN is believed to be sequentially phosphorylated at S62/T58 before it is targeted for degradation by ubiquitination, and only phosphorylated, ubiquitinated MYCN is protected from degradation by Aurora A (Gustafson and Weiss, 2010; Otto et al., 2009).
# IPC-298 = experiment: Cancer cell line profiling, Genomics of Drug Sensitivity Project; conditions: Homo sapiens, IPC-298, read-out: CD532 EC50 (uM)
# NB17 = experiment: as above; conditions: read-out: CD532 EC50 (uM)
# AsPC-1 = experiment: as above; conditions: Homo sapiens, ASPC1, read-out: CD532 EC50 (uM)
# [1] = Pharmacokinetics of CD532 in mice; assay type: in vivo; conditions: mouse, serum, ip, 20 mg/kg, intraperitoneal injection
# RVH-421 = experiment: Cancer cell line profiling, Genomics of Drug Sensitivity Project; conditions: Homo sapiens, RVH-421, read-out: CD532 EC50 (uM)
# SAS = experiment: as above; conditions: read-out: CD532 EC50 (uM)
# GT3TKB = experiment: as above; conditions: read-out: CD532 EC50 (uM)
# MEL-HO = experiment: as above; conditions: read-out: CD532 EC50 (uM)
# SH-4 = experiment: as above; conditions: Homo sapiens, SH-4, read-out: CD532 EC50 (uM)
# Detroit 562 = experiment: as above; conditions: Homo sapiens, Detroit 562, read-out: CD532 EC50 (uM)
# DJM-1 = experiment: as above; conditions: read-out: CD532 EC50 (uM)
# KLE = experiment: as above; conditions: Homo sapiens, read-out: CD532 EC50 (uM)
# BICR 78 = experiment: as above; conditions: read-out: CD532 EC50 (uM)
# GI-ME-N = experiment: as above
# JHH-7 = experiment: as above; conditions: JHH7, read-out: CD532 EC50 (uM)
# LS-123 = experiment: as above; conditions: Homo sapiens, LS-123, read-out: CD532 EC50 (uM)
# NB5 = experiment: as above; conditions: read-out: CD532 EC50 (uM)
# [2] = tested on: SK-N-BE(2) MYCN-amplified neuroblastoma cells; experiment: Viability at 72 hrs, CyQUANT assay; assay type: cell-based; conditions: Homo sapiens, SKNBE2, SK-N-BE(2) cells, FIG. 1E, read-out: cellular EC50 at 72 hrs
# Experimental: For viability studies, neuroblastoma cells were plated in 96-well plates at a density of 1,000 cells/well for SHEP or 4,000 cells/well for Kelly or SK—N-BE2 cells, then incubated with indicated concentrations of drug for 72 hours at 37° C. Plates were frozen at −80° C. to induce cell lysis. CyQUANT reagent mixture (Invitrogen, C7026) was added to thawed plates, then fluorescence was measured. Alternatively, resazurin (Sigma-Aldrich, R7017) was added directly to wells following drug treatment then incubated for 4 hours at 37° C. prior to measuring fluorescence. Data was analyzed using GraphPad Prism software.
# GAK = experiment: Cancer cell line profiling, Genomics of Drug Sensitivity Project; conditions: read-out: CD532 EC50 (uM)
# LB771-HNC = experiment: as above; conditions: read-out: CD532 EC50 (uM)
# EFO-21 = experiment: as above; conditions: Homo sapiens, EFO-21, read-out: CD532 EC50 (uM)
# 5637 = experiment: as above; conditions: read-out: CD532 EC50 (uM)
# NB10 = experiment: as above; conditions: read-out: CD532 EC50 (uM)
# MKN28 = experiment: as above; conditions: Homo sapiens, MKN-28, read-out: CD532 EC50 (uM)
# JHH-6 = experiment: as above; conditions: read-out: CD532 EC50 (uM)
# LB996-RCC = experiment: as above; conditions: read-out: CD532 EC50 (uM)
smiles,measurement,setting,value
"O=C(Nc1ccc(Nc2nccc(Nc3cc(C4CCCC4)[nH]n3)n2)cc1)Nc1cccc(C(F)(F)F)c1 [CD532, 1-(4-((4-((5-cyclopentyl-1H-pyrazol-3-yl)amino)pyrimidin-2-yl)amino)phenyl)-3-(3-(trifluoromethyl)phenyl)urea]",EC50,LB831-BLC,1.29 µM
same,EC50,NCI-N87,10.9 µM
same,EC50,HSC-4,0.885 µM
same,wild-type MYCN protein,"MYCN; SHEP cells expressing MYCNWT, 24 hrs, increasing concentrations (FIG. 12C)",dose-dependent decrease in wild-type MYCN protein
same,MYCNT58A/S62A protein,"MYCN; SHEP cells expressing non-phosphorylatable MYCNT58A/S62A, 24 hrs (FIG. 12C)",partially protected from degradation
same,EC50,IPC-298,0.574 µM
same,EC50,NB17,0.282 µM
same,EC50,AsPC-1,5.41 µM
same,half-life,[1],~1.5 h
same,AUC(0-t),[1]; read-out: AUC0-24,27 µM·h
same,EC50,RVH-421,0.585 µM
same,EC50,SAS,1.46 µM
same,EC50,GT3TKB,1.05 µM
same,EC50,MEL-HO,0.411 µM
same,EC50,SH-4,0.783 µM
same,EC50,Detroit 562,1.25 µM
same,EC50,DJM-1,0.427 µM
same,EC50,KLE,2.99 µM
same,EC50,BICR 78,12.2 µM
same,EC50,"GI-ME-N; read-out: CD532 EC50 (uM), GI-ME-N cell line, Nervous System",0.428 µM
same,pEC50,"GI-ME-N; read-out: CD532 EC50, GI-ME-N cell line, Nervous System",6.09
same,EC50,JHH-7,0.766 µM
same,EC50,LS-123,0.861 µM
same,EC50,NB5,0.761 µM
same,pEC50,[2],6.65
same,EC50,GAK,0.823 µM
same,EC50,LB771-HNC,0.916 µM
same,EC50,EFO-21,1.87 µM
same,EC50,5637,0.49 µM
same,EC50,NB10,0.275 µM
same,EC50,MKN28,10.1 µM
same,EC50,JHH-6,1.24 µM
same,EC50,LB996-RCC,2.08 µM
